US20030144350A1, “Fat accumulation-modulation compounds” (AdipoGenix, Inc., priority 2001, published 2003)
Where two headings read alike, the source gives them in different places.

Assays:
[1] = mice, single injections; cited from earlier work
[2] = tested on: primary human subcutaneous preadipocytes; assay: High throughput screening of fluorescent fatty acid (FA*) accumulation in differentiating human preadipocytes; type: cell-based
Experimental: Growth medium was changed every three days. […] Cell plates were prewashed with FAB+, and then FA* was added. Cells were incubated with FA* for four hours, and then postwashed with FAB+ to remove unincorporated FA*. Cellular fluorescence of triglyceride droplets that have incorporated FA* was measured on a microplate reader. Efficacy of compounds on inhibiting FA* accumulation was determined by the following calculation: […]

[3] = tested on: primary human subcutaneous preadipocytes; settings: for % Toxicity: Alamar Blue
Experimental: Up to five cell strains of banked primary human subcutaneous preadipocytes were used for high throughput screening. Cells were grown in tissue culture flasks, maintained under standard incubation conditions (5% carbon dioxide, 37° C.) and split evenly when 100% confluent into two new tissue culture flasks (one cell division) in growth medium. Cells were split up to four times to produce enough cells for screening.
Two to five days before the experiment, adhered cells were detached with trypsin/EDTA, combined and seeded into 384-well plates at 100% confluency. On day zero, cells were incubated with […] to induce differentiation of preadipocytes into adipocytes (characterized by cell rounding, formation of triglyceride droplets, etc.). Growth medium was changed every three days. On day six, cells were incubated in triplicate with test compounds (supplied by ComGenex International, Inc., South San Francisco, USA) at various concentrations.
Compounds were first diluted in a phosphate-buffered saline solution with 0.1% fatty-acid free bovine serum albumin (BSA, to aid compound suspension), and then added to cells. Negative control cells were treated with DMSO, the solvent used for initially dissolving compounds, at 0.1% final concentration.
Subsequent determination of compound toxicity was measured by incubating cells with Alamar Blue (an indicator of cellular viability, purchased from BioSource International Inc., Camarillo, Calif., USA) for three to four hours before measuring fluorescence of the reduced compound. Toxicity of compounds was determined by the following calculation:
% Toxicity=100-(sample fluorescence/negative control fluorescence*100)

C=C1C(=O)OC(CCCCCCCC)C1C(=O)O (stereo not drawn) [Compound C75]
food eaten less than untreated littermates [1]: 90%

N#CC(C#N)=NNc1ccc(OC(F)(F)F)cc1 [FCCP, Carbonyl cyanide p-(trifluoromethoxy)phenylhydrazone]
efficacy ([2]; 10 μM): 100%
Emax at 0.3 µM ([2]; Homo sapiens, FCCP 0.3 uM, inhibition of FA* accumulation, read-out: % Efficacy): 42%
Emax at 1 µM ([2]; Homo sapiens, FCCP 1 uM, inhibition of FA* accumulation, read-out: % Efficacy): 79%
Emax at 3 µM ([2]; Homo sapiens, FCCP 3 uM, inhibition of FA* accumulation, read-out: % Efficacy): 90%
toxicity ([3]; 10 μM): 100%
% Toxicity ([3]; FCCP 0.3 uM): −1%
% Toxicity ([3]; FCCP 1 uM): −4%
% Toxicity ([3]; FCCP 3 uM): 5%
